Experimental data published in PubChem BioAssay (NCI).
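Five compound concentrations were applied to cells in 96-well plates for 48 hours; endpoints were derived by simple linear interpolation of the resulting dose-response curve. Here, GI50 denotes the concentration required for 50% inhibition of growth. TGI is the concentration that stops growth completely.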

Columns and labels:
Assay in all cases: growth of human tumour cells (NCI), 48 h
[1] = tested on: MDA-MB-435
[2] = tested on: HL-60(TB) leukemia
[3] = tested on: T-47D breast
[4] = tested on: HCT-15 colon
[5] = tested on: SN12C renal
[6] = tested on: ACHN renal
[7] = tested on: HOP-92 NSCLC
[8] = tested on: SK-MEL-5 melanoma
[9] = tested on: EKVX NSCLC
[10] = tested on: DU-145 prostate
[11] = tested on: BT-549 breast
[12] = tested on: HCC-2998 colon
[13] = tested on: A498 renal
[14] = tested on: K-562 leukemia
[15] = tested on: HS 578T breast
[16] = tested on: CCRF-CEM leukemia
[17] = tested on: SF-268 CNS
[18] = tested on: TK-10 renal
[19] = tested on: SK-MEL-28 melanoma
[20] = tested on: OVCAR-5 ovarian
[21] = tested on: SW-620 colon
[22] = tested on: CAKI-1 renal
[23] = tested on: NCI-H460 lung
[24] = tested on: SR leukemia
[25] = tested on: MOLT-4 leukemia
[26] = tested on: SNB-75 CNS
[27] = tested on: UO-31 renal
[28] = tested on: UACC-62 melanoma
[29] = tested on: COLO 205 colon
[30] = tested on: NCI/ADR-RES ovarian
[31] = tested on: OVCAR-4 ovarian
[32] = tested on: RPMI-8226 leukemia
[33] = tested on: HT29 colon
[34] = tested on: NCI-H23 lung
[35] = tested on: MCF7 breast
[36] = tested on: SNB-19 CNS
[37] = tested on: SF-295 CNS
[38] = tested on: MALME-3M melanoma
[39] = tested on: LOX IMVI melanoma
[40] = tested on: KM12 colon
[41] = tested on: HCT-116 colon
[42] = tested on: SF-539 CNS
[43] = tested on: M14 melanoma
[44] = tested on: IGROV1 ovarian
[45] = tested on: MDA-MB-231 breast
[46] = tested on: PC-3 prostate
[47] = tested on: NCI-H522 lung
[48] = tested on: U251 CNS
[49] = tested on: OVCAR-8 ovarian
[50] = tested on: RXF 393 renal
[51] = tested on: HOP-62 NSCLC
[52] = tested on: SK-MEL-2 melanoma
[53] = tested on: 786-0 renal
[54] = tested on: A549 NSCLC
[55] = tested on: UACC-257 melanoma
[56] = tested on: NCI-H226 lung
[57] = tested on: SK-OV-3 ovarian

SMILES: [Cl][Ru].c1ccc(-c2cc(-c3ccccn3)nc(-c3ccccn3)c2)cc1.c1ccc(-c2ccnc3c2ccc2c(-c4ccccc4)ccnc23)cc1
- GI50 [1]: 0.322 µM
- TGI [1]: 1.01 µM
- GI50 [2]: 0.252 µM
- TGI [2]: 0.696 µM
- GI50 [3]: 0.27 µM
- TGI [3]: 1.07 µM
- GI50 [4]: 2.08 µM
- TGI [4]: 4.73 µM
- GI50 [5]: 0.266 µM
- TGI [5]: 0.915 µM
- GI50 [6]: 3.23 µM
- TGI [6]: 25.7 µM
- GI50 [7]: 0.139 µM
- TGI [7]: 0.543 µM
- GI50 [8]: 0.577 µM
- TGI [8]: 1.84 µM
- GI50 [9]: 0.352 µM
- TGI [9]: 2.36 µM
- GI50 [10]: 0.529 µM
- GI50 [11]: 0.224 µM
- TGI [11]: 0.869 µM
- GI50 [12]: 0.356 µM
- TGI [12]: 1.45 µM
- GI50 [13]: 1.93 µM
- TGI [13]: 4.56 µM
- GI50 [14]: 0.301 µM
- TGI [14]: 4.66 µM
- GI50 [15]: 0.275 µM
- TGI [15]: 0.919 µM
- GI50 [16]: 0.415 µM
- GI50 [17]: 0.489 µM
- GI50 [18]: 1.6 µM
- TGI [18]: 4.15 µM
- GI50 [19]: 0.418 µM
- TGI [19]: 1.58 µM
- GI50 [20]: 0.396 µM
- TGI [20]: 1.71 µM
- GI50 [21]: 0.451 µM
- TGI [21]: 1.67 µM
- GI50 [22]: 3.15 µM
- TGI [22]: 26.6 µM
- GI50 [23]: 0.351 µM
- TGI [23]: 1.12 µM
- TGI [24]: 1.09 µM
- GI50 [25]: 0.332 µM
- TGI [25]: 1.62 µM
- GI50 [26]: 0.179 µM
- TGI [26]: 0.829 µM
- GI50 [27]: 2.62 µM
- TGI [27]: > 45.8 µM
- GI50 [28]: 0.292 µM
- TGI [28]: 1.17 µM
- GI50 [29]: 0.182 µM
- TGI [29]: 0.335 µM
- GI50 [30]: 31.1 µM
- TGI [30]: > 100 µM
- GI50 [31]: 0.424 µM
- TGI [31]: 2.5 µM
- GI50 [32]: 0.232 µM
- TGI [32]: 0.727 µM
- GI50 [33]: 0.333 µM
- TGI [33]: 1.31 µM

SMILES: CCOC(=O)c1c(NC(=O)c2cccc(C(F)(F)F)c2)sc2c(CN3CCN(C)CC3)c(O)ccc12
- GI50 [1]: 1.69 µM
- TGI [1]: 3.1 µM
- GI50 [4]: 1.61 µM
- TGI [4]: 3.13 µM
- GI50 [5]: 1.67 µM
- TGI [5]: 3.16 µM
- GI50 [6]: 1.82 µM
- TGI [6]: 3.31 µM
- GI50 [8]: 1.79 µM
- TGI [8]: 3.4 µM
- GI50 [9]: 1.69 µM
- TGI [9]: 3.31 µM
- GI50 [34]: 1.76 µM
- TGI [34]: 3.28 µM
- GI50 [35]: 1.51 µM
- TGI [35]: 3.03 µM
- GI50 [12]: 1.65 µM
- TGI [12]: 3.37 µM
- GI50 [36]: 1.72 µM
- TGI [36]: 3.31 µM
- GI50 [15]: 1.89 µM
- TGI [15]: 4.51 µM
- GI50 [16]: 1.51 µM
- TGI [16]: 4.22 µM
- GI50 [37]: 1.7 µM
- TGI [37]: 3.25 µM
- GI50 [38]: 1.65 µM
- TGI [38]: 3.15 µM
- GI50 [19]: 1.72 µM
- TGI [19]: 3.15 µM
- GI50 [20]: 1.5 µM
- TGI [20]: 2.85 µM
- GI50 [39]: 1.76 µM
- TGI [39]: 3.31 µM
- GI50 [40]: 1.86 µM
- TGI [40]: 3.4 µM
- GI50 [41]: 1 µM
- TGI [41]: 2.43 µM
- GI50 [42]: 1.62 µM
- TGI [42]: 3.06 µM
- GI50 [43]: 1.88 µM
- TGI [43]: 3.53 µM
- GI50 [27]: 1.52 µM
- TGI [27]: 3 µM
- GI50 [28]: 1.76 µM
- TGI [28]: 3.27 µM
- GI50 [44]: 1.7 µM
- TGI [44]: 3.27 µM
- GI50 [45]: 1.65 µM
- TGI [45]: 3.11 µM

SMILES: N#Cc1c(NC(=O)c2cccc(C(F)(F)F)c2F)sc2c1CCC(=O)C2
- GI50 [1]: 0.336 µM
- TGI [1]: 1.4 µM
- GI50 [2]: 0.235 µM
- TGI [2]: 10.9 µM
- GI50 [46]: 0.114 µM
- TGI [46]: 1.48 µM
- GI50 [3]: 0.151 µM
- TGI [3]: 1.65 µM
- GI50 [4]: 0.246 µM
- TGI [4]: 1.14 µM
- GI50 [5]: 0.326 µM
- TGI [5]: 2.22 µM
- GI50 [47]: 0.194 µM
- TGI [47]: 0.719 µM
- GI50 [48]: 0.356 µM
- TGI [48]: 2.24 µM
- GI50 [6]: 0.296 µM
- TGI [6]: 1.01 µM
- GI50 [49]: 0.356 µM
- TGI [49]: > 100 µM
- GI50 [7]: 0.243 µM
- TGI [7]: 0.679 µM
- GI50 [8]: 0.372 µM
- TGI [8]: 1.32 µM
- GI50 [50]: 0.221 µM
- TGI [50]: 0.714 µM
- GI50 [9]: 0.563 µM
- TGI [9]: 4.4 µM
- GI50 [34]: 0.337 µM
- TGI [34]: 2.07 µM
- GI50 [35]: 0.276 µM
- TGI [35]: > 23 µM
- GI50 [10]: 1.27 µM
- TGI [10]: > 100 µM
- GI50 [11]: 0.308 µM
- TGI [11]: 1.43 µM
- GI50 [12]: 0.588 µM
- TGI [12]: 2.09 µM
- GI50 [36]: 0.41 µM
- TGI [36]: 15.6 µM
- GI50 [13]: 2.19 µM
- TGI [13]: 5.93 µM
- GI50 [14]: 0.112 µM
- TGI [14]: > 100 µM
- GI50 [15]: 0.357 µM
- TGI [15]: 2.32 µM
- GI50 [51]: 0.782 µM
- GI50 [52]: 2.15 µM
- TGI [52]: 5.33 µM
- GI50 [53]: 0.444 µM
- TGI [53]: > 47.5 µM
- GI50 [16]: 0.19 µM
- TGI [16]: > 100 µM
- GI50 [54]: 1.88 µM
- TGI [54]: > 100 µM
- GI50 [37]: 0.515 µM
- TGI [37]: 2.42 µM
- GI50 [38]: 0.266 µM
- TGI [38]: 0.694 µM
- GI50 [17]: 0.408 µM
- TGI [17]: > 100 µM
- GI50 [18]: 0.33 µM
- GI50 [19]: 0.475 µM
- TGI [19]: 1.79 µM
- GI50 [20]: 0.392 µM
- TGI [20]: 1.78 µM
- GI50 [21]: 0.225 µM
- TGI [21]: 1.46 µM
- GI50 [39]: 0.311 µM
- TGI [39]: 1.18 µM
- GI50 [40]: 0.464 µM
- TGI [40]: 1.98 µM
- GI50 [22]: 0.221 µM
- TGI [22]: 0.866 µM
- GI50 [41]: 0.124 µM
- TGI [41]: 1.26 µM
- GI50 [42]: 0.244 µM
- TGI [42]: 0.8 µM
- GI50 [43]: 0.378 µM
- TGI [43]: 2.1 µM
- GI50 [23]: 0.549 µM
- TGI [23]: > 38.9 µM
- GI50 [24]: 0.0761 µM
- TGI [24]: > 100 µM
- GI50 [25]: 0.308 µM
- TGI [25]: > 37.7 µM
- GI50 [55]: 0.624 µM
- TGI [55]: 3.18 µM
- GI50 [26]: 0.459 µM
- TGI [26]: 3.55 µM
- GI50 [27]: 0.22 µM
- TGI [27]: 0.73 µM
- GI50 [28]: 0.317 µM
- TGI [28]: 1.33 µM
- GI50 [29]: 0.21 µM
- TGI [29]: 0.437 µM
- GI50 [30]: 0.345 µM
- TGI [30]: 1.82 µM
- GI50 [44]: 0.49 µM
- TGI [44]: 2.2 µM
- GI50 [31]: 0.393 µM
- TGI [31]: 1.73 µM
- GI50 [45]: 0.356 µM
- TGI [45]: 1.35 µM
- GI50 [56]: 0.487 µM
- TGI [56]: 2.57 µM
- GI50 [32]: 0.0664 µM
- GI50 [33]: 0.226 µM
- TGI [33]: 1.31 µM
- GI50 [57]: 1.96 µM
- TGI [57]: 6.37 µM
